Assay results taken from patent publication US20080009418A1, “Selective Inhibitors” (Alchemia LTD., priority 2004, published 2008).

Assays:
Human opioid (ORL1) = biological target: T1, Human opioid (ORL1) (Homo sapiens, UniProt P41146); assay: Radioligand binding, human opioid ORL1 membranes, FlashPlate, [125I]-Nociceptin; settings: compound at 10 μM, [125I]-Nociceptin
T1 construct: purchased Perkin Elmer Biosignal
Procedure, shortened: (§1)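 Cloned human receptor membranes were coated onto FlashPlate wells and incubated with radioligand and compound (added from a 0.5 mM DMSO daughter plate) for 1 hour at room temperature in the dark. Scintillation counting gave percent inhibition, with DMSO defining total and reference ligand defining non-specific binding.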

Human melanocortin (MC5) = biological target: T2, Human melanocortin (MC5) (Homo sapiens, UniProt P33032); assay: Radioligand binding, human melanocortin MC5 membranes, FlashPlate, [125I]-NDP-αMSH; settings: compound at 10 μM, [125I]-NDP-αMSH
T2 construct: purchased Perkin Elmer Biosignal
Procedure, shortened: as §1

Human neurokinin (NK1) = biological target: T3, Human neurokinin (NK1) (Homo sapiens, UniProt P25103); assay: Radioligand binding, human neurokinin NK1 membranes, filtration, [125I]-Substance P; settings: compound at 10 μM, [125I]-Substance P
T3 construct: purchased Perkin Elmer Biosignal
Procedure, shortened: (§2)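 Percent inhibition of radioligand binding measured on recombinant human membranes: NK1 with [125I]-Substance P, KOP with [3H]-Diprenorphine. Incubation 1 h at room temperature, then harvest onto 0.3% PEI-soaked filters, cold Tris-HCl pH 7.4 washes and scintillation counting; non-specific binding from reference ligand wells.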

[1] = biological target: T4, Human melanin-concentrating hormone (MCH1) (Homo sapiens, UniProt Q99705); assay: Radioligand binding, human melanin-concentrating hormone MCH1 membranes, FlashPlate, [125I]-S36057; settings: compound at 10 μM; for A6: inhibition of radioligand binding, human melanin-concentrating hormone (MCH1): [125I]-S36057
T4 construct: purchased Perkin Elmer Biosignal
Procedure, shortened: as §1

[2] = biological target: T5, Human neuropeptide Y (NPY-Y1) (Homo sapiens, UniProt P25929); assay: Radioligand binding, human neuropeptide Y NPY-Y1 membranes, FlashPlate, [125I]-PYY; settings: compound at 10 μM, [125I]-PYY
T5 construct: purchased Perkin Elmer Biosignal
T5 sequence (P25929 1-384): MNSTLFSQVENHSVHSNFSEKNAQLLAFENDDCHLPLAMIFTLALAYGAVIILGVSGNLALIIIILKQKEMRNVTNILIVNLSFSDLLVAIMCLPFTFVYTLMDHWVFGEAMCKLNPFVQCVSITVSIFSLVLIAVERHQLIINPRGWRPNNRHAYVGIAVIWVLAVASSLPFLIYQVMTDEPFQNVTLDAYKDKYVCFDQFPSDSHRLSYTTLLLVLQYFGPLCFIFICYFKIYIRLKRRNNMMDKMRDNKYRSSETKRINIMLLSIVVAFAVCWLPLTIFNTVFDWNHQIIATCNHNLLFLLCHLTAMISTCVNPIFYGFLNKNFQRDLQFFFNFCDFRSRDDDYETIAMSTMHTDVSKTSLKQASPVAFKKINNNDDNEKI
Procedure, shortened: as §1

Mouse urotensin (mUR2) = biological target: T6, Mouse urotensin (mUR2) (Mus musculus, UniProt Q8VIH9); assay: Radioligand binding, mouse urotensin mUR2 membranes, FlashPlate, [125I]-Urotensin II; settings: compound at 10 μM, [125I]-Urotensin II
T6 construct: purchased Perkin Elmer Biosignal
T6 sequence (Q8VIH9 1-385): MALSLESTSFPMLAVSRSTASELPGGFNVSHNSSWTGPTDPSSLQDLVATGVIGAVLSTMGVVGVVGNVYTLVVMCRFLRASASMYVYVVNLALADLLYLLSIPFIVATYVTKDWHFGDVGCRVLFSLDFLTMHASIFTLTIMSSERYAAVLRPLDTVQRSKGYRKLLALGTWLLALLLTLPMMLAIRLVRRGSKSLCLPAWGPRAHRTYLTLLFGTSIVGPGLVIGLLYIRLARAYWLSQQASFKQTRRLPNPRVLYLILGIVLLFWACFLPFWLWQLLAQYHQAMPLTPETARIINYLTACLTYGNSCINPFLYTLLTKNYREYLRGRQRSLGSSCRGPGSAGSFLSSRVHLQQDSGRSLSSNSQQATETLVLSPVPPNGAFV
Procedure, shortened: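 Cloned mouse urotensin (mUR2) receptor membranes from Perkin Elmer Biosignal were immobilized in FlashPlate microplates using a proprietary coating. Each well got 19.5 μl buffer, then 0.5 μl of DMSO, reference ligand, or compound. Adding 5 μl of [125I]-Urotensin II, diluted to 5× final concentration in binding buffer, started binding. Plates were sealed with TopSeal-A and incubated 1 hour at room temperature in the dark. Wells were counted for 30 seconds each on a TopCount after a 60-second delay, and percentage inhibition was calculated.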

Human Melanocortin (MC3) = biological target: T7, Human Melanocortin (MC3) (Homo sapiens, UniProt P41968); assay: Radioligand binding, human melanocortin MC3 membranes, FlashPlate, [125I]-NDP-αMSH; settings: compound at 10 μM, [125I]-NDP-αMSH
T7 construct: purchased Perkin Elmer Biosignal
Procedure, shortened: as §1

Human κ-Opioid (KOP) = biological target: T8, Human κ-Opioid (KOP) (Homo sapiens, UniProt P41145); assay: Radioligand binding, human κ-opioid (KOP) membranes, filtration, [3H]-Diprenorphine; settings: compound at 10 μM, [3H]-Diprenorphine
T8 construct: purchased Perkin Elmer Biosignal
Procedure, shortened: as §2

Human δ-opioid (DOP) = biological target: T9, Human δ-opioid (DOP) (Homo sapiens, UniProt P41143); assay: Radioligand binding, human δ-opioid (DOP) membranes, FlashPlate, [3H]-Bremazocine; settings: compound at 10 μM, [3H]-Bremazocine
T9 construct: purchased Perkin Elmer Biosignal
Procedure, shortened: as §1

Human μ-opioid (MOP) = biological target: T10, Human μ-opioid (MOP) (Homo sapiens, UniProt P35372); assay: Radioligand binding, human μ-opioid (MOP) membranes, FlashPlate, [3H]-Naloxone; settings: compound at 10 μM, [3H]-Naloxone
T10 construct: purchased Perkin Elmer Biosignal
Procedure, shortened: as §1

Human Melanocortin (MC4) = biological target: T11, Human Melanocortin (MC4) (Homo sapiens, UniProt P32245); assay: Radioligand binding, human melanocortin MC4 membranes, FlashPlate, [125I]-NDP-αMSH; settings: compound at 10 μM, [125I]-NDP-αMSH
T11 construct: purchased Perkin Elmer Biosignal
Procedure, shortened: as §1

T10 sequence (P35372 whole entry): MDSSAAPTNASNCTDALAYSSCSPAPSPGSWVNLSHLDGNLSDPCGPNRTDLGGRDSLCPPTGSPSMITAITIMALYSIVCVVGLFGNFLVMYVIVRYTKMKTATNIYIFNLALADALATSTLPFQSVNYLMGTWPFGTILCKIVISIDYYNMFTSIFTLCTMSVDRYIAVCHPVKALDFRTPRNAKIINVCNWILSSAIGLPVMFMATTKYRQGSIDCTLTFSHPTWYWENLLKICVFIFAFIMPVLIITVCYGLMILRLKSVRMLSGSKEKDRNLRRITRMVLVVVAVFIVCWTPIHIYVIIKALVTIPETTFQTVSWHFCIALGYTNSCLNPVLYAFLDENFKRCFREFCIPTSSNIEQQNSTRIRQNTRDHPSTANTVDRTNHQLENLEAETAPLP
T9 sequence (P41143 whole entry): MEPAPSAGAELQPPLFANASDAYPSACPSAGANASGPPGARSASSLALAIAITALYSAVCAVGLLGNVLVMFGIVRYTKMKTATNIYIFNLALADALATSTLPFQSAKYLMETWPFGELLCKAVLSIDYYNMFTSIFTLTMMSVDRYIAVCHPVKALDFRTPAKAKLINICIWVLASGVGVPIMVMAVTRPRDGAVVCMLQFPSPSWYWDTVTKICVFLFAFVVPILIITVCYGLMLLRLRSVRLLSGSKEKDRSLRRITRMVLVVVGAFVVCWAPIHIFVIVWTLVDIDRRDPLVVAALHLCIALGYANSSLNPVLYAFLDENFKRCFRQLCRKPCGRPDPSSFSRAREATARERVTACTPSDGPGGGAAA
T7 sequence (P41968 whole entry): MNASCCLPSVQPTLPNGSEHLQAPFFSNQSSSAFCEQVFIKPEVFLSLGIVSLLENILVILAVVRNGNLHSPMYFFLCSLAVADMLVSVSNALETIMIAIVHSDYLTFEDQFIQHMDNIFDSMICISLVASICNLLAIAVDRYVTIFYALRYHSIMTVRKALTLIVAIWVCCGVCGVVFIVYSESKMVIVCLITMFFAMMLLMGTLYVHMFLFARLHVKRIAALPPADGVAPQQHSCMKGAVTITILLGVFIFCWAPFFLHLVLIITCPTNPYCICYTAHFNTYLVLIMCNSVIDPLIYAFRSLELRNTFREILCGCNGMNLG
T3 sequence (P25103 whole entry): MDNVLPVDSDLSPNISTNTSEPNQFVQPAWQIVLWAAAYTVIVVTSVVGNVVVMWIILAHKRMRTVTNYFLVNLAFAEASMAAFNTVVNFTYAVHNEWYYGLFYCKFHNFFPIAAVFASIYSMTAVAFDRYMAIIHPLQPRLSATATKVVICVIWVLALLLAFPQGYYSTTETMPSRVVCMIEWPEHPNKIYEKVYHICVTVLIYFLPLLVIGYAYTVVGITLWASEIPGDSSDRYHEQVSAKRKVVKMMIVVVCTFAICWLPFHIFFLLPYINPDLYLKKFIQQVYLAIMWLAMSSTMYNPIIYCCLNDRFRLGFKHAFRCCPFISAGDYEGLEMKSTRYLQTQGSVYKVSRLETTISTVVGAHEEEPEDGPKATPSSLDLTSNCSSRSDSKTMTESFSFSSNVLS
T2 sequence (P33032 whole entry): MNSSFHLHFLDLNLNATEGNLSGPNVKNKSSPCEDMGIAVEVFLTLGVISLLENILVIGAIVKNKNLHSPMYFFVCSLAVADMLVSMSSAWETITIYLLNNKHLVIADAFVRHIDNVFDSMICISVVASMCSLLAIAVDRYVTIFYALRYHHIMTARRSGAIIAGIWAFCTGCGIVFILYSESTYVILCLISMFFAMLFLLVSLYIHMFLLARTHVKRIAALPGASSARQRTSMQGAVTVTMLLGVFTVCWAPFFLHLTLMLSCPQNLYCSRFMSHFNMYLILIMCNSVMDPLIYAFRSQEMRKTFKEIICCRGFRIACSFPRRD
T11 sequence (P32245 whole entry): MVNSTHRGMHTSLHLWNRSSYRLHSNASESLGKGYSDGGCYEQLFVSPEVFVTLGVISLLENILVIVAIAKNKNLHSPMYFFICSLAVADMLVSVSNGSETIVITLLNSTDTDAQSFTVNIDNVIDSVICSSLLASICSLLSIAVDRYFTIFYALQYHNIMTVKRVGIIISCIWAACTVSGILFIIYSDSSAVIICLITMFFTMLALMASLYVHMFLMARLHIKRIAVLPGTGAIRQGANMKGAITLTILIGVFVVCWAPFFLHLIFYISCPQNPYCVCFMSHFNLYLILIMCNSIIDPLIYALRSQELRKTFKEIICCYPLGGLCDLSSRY
T8 sequence (P41145 whole entry): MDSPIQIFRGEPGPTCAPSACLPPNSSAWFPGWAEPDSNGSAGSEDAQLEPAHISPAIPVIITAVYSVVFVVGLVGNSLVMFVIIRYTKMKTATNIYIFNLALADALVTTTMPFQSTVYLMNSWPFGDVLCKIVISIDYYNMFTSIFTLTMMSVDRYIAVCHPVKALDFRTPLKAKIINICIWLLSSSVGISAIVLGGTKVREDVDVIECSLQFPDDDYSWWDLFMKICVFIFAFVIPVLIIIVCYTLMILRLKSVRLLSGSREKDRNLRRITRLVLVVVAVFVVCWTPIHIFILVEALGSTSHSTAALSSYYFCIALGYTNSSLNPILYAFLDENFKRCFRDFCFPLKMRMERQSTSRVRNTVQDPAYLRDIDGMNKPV
T1 sequence (P41146 whole entry): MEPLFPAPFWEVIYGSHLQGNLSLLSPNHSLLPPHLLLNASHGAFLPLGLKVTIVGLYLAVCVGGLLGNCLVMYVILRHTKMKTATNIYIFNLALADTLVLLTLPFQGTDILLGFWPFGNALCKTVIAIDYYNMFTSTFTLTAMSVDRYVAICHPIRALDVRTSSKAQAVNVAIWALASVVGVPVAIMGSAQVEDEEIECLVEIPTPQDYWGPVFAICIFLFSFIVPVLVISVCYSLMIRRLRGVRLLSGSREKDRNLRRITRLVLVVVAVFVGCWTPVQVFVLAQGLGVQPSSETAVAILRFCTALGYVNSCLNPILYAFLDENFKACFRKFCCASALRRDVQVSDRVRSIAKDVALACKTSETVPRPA
T4 sequence (Q99705 whole entry): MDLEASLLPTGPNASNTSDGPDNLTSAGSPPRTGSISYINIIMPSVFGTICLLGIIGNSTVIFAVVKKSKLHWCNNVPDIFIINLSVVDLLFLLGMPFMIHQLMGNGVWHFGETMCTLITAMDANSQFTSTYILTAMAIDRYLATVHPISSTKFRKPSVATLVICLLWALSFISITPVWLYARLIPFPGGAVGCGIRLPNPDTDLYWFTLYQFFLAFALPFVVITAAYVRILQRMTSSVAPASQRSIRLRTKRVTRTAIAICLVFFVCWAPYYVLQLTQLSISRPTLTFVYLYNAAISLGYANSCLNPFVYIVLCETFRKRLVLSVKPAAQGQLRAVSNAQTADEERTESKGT

SMILES | A10: inhibition of radioligand binding (Human opioid (ORL1); FlashPlate) | A5: inhibition of radioligand binding (Human melanocortin (MC5); FlashPlate) | A8: inhibition of radioligand binding (Human neurokinin (NK1); filtration) | A6: inhibition of radioligand binding ([1]; [125I]-S36057, FlashPlate) | A9: inhibition of radioligand binding ([2]; FlashPlate) | A11: inhibition of radioligand binding (Mouse urotensin (mUR2); FlashPlate) | A3: inhibition of radioligand binding (Human Melanocortin (MC3); FlashPlate) | A2: inhibition of radioligand binding (Human κ-Opioid (KOP); filtration) | A1: inhibition of radioligand binding (Human δ-opioid (DOP); FlashPlate) | A7: inhibition of radioligand binding (Human μ-opioid (MOP); FlashPlate) | A4: inhibition of radioligand binding (Human Melanocortin (MC4); FlashPlate) | A10: inhibition of radioligand binding, human opioid (ORL1) (Human opioid (ORL1)) | A5: inhibition of radioligand binding, human melanocortin (MC5) (Human melanocortin (MC5)) | A8: inhibition of radioligand binding, human neurokinin (NK1) (Human neurokinin (NK1)) | A6: inhibition of radioligand binding, human melanin-concentrating hormone (MCH1) [1] | A9: inhibition of radioligand binding, human neuropeptide Y (NPY-Y1) [2] | A11: inhibition of radioligand binding, mouse urotensin (mUR2) (Mouse urotensin (mUR2)) | A3: inhibition of radioligand binding, human melanocortin (MC3) (Human Melanocortin (MC3)) | A2: inhibition of radioligand binding, human κ-opioid (KOP) (Human κ-Opioid (KOP)) | A1: inhibition of radioligand binding, human δ-opioid (DOP) (Human δ-opioid (DOP)) | further results
COCC1OC(OCCc2ccccc2)C(NC(=O)CNC(=N)N)C(OCc2ccccc2)C1O (stereo not shown) [compound 215] | − (“−” indicates less than 50% inhibition at 10 μM) | + (“+” indicates greater than 50% inhibition at 10 μM) | + (“+” indicates greater than 50% inhibition at 10 μM) | − (“−” indicates less than 50% inhibition at 10 μM) | − (“−” indicates less than 50% inhibition at 10 μM) | − (“−” indicates less than 50% inhibition at 10 μM) | − (“−” indicates less than 50% inhibition at 10 μM) | − (“−” indicates less than 50% inhibition at 10 μM) | − (“−” indicates less than 50% inhibition at 10 μM) | − (“−” indicates less than 50% inhibition at 10 μM) | − (“−” indicates less than 50% inhibition at 10 μM) | – | – | – | – | – | – | – | – | – | –
N=C(N)NCC(=O)NC1C(OCc2ccc(Cl)cc2)OC(COCc2ccc3ccccc3c2)C(O)C1OCc1ccc2ccccc2c1 (stereo not shown) [compound 420] | – | – | – | – | – | – | – | – | – | – | – | – | – | – | – | – | – | – | – | – | A10: inhibition of radioligand binding (Human opioid (ORL1); human ORL1 membranes): + (“+” indicates greater than 50% inhibition at 10 μM); A5: inhibition of radioligand binding (Human melanocortin (MC5); human MC5 membranes): + (“+” indicates greater than 50% inhibition at 10 μM); A8: inhibition of radioligand binding (Human neurokinin (NK1); human NK1 membranes): + (“+” indicates greater than 50% inhibition at 10 μM); A6: inhibition of radioligand binding ([1]; [125I]-S36057, human MCH1 membranes): − (“−” indicates less than 50% inhibition at 10 μM); A9: inhibition of radioligand binding ([2]; human NPY-Y1 membranes): − (“−” indicates less than 50% inhibition at 10 μM); A11: inhibition of radioligand binding (Mouse urotensin (mUR2); mouse mUR2 membranes): − (“−” indicates less than 50% inhibition at 10 μM); A3: inhibition of radioligand binding (Human Melanocortin (MC3); human MC3 membranes): + (“+” indicates greater than 50% inhibition at 10 μM); A2: inhibition of radioligand binding (Human κ-Opioid (KOP); human KOP membranes): − (“−” indicates less than 50% inhibition at 10 μM); A1: inhibition of radioligand binding (Human δ-opioid (DOP); human DOP membranes): − (“−” indicates less than 50% inhibition at 10 μM); A7: inhibition of radioligand binding (Human μ-opioid (MOP); human MOP membranes): − (“−” indicates less than 50% inhibition at 10 μM); A4: inhibition of radioligand binding (Human Melanocortin (MC4); human MC4 membranes): + (“+” indicates greater than 50% inhibition at 10 μM)
COC[C@H]1OC(OCc2ccc3ccccc3c2)[C@H](NC(=O)CCCN)[C@@H](OCc2ccc(Cl)cc2)[C@@H]1O (stereo partly shown) [compound 340] | – | – | – | – | – | – | – | – | – | – | – | − (“−” indicates less than 50% inhibition at 10 μM) | − (“−” indicates less than 50% inhibition at 10 μM) | + (“+” indicates greater than 50% inhibition at 10 μM) | − (“−” indicates less than 50% inhibition at 10 μM) | − (“−” indicates less than 50% inhibition at 10 μM) | − (“−” indicates less than 50% inhibition at 10 μM) | − (“−” indicates less than 50% inhibition at 10 μM) | − (“−” indicates less than 50% inhibition at 10 μM) | − (“−” indicates less than 50% inhibition at 10 μM) | A7: inhibition of radioligand binding, human μ-opioid (MOP) (Human μ-opioid (MOP)): − (“−” indicates less than 50% inhibition at 10 μM); A4: inhibition of radioligand binding, human melanocortin (MC4) (Human Melanocortin (MC4)): − (“−” indicates less than 50% inhibition at 10 μM)
NCCCC(=O)NC1C(OCc2ccc(Cl)cc2)OC(COCc2ccc3ccccc3c2)C(O)C1OCc1ccc2ccccc2c1 (single isomer, unassigned) [compound 495] | – | – | – | – | – | – | – | – | – | – | – | + (“+” indicates greater than 50% inhibition at 10 μM) | + (“+” indicates greater than 50% inhibition at 10 μM) | + (“+” indicates greater than 50% inhibition at 10 μM) | + (“+” indicates greater than 50% inhibition at 10 μM) | − (“−” indicates less than 50% inhibition at 10 μM) | − (“−” indicates less than 50% inhibition at 10 μM) | + (“+” indicates greater than 50% inhibition at 10 μM) | − (“−” indicates less than 50% inhibition at 10 μM) | − (“−” indicates less than 50% inhibition at 10 μM) | A7: inhibition of radioligand binding, human μ-opioid (MOP) (Human μ-opioid (MOP)): + (“+” indicates greater than 50% inhibition at 10 μM); A4: inhibition of radioligand binding, human melanocortin (MC4) (Human Melanocortin (MC4)): + (“+” indicates greater than 50% inhibition at 10 μM)
COCC1OC(OCCc2ccccc2)C(NC(=O)CCCN)C(OCc2ccc(Cl)cc2)C1O (stereo not shown) [compound 222] | − (“−” indicates less than 50% inhibition at 10 μM) | + (“+” indicates greater than 50% inhibition at 10 μM) | + (“+” indicates greater than 50% inhibition at 10 μM) | − (“−” indicates less than 50% inhibition at 10 μM) | − (“−” indicates less than 50% inhibition at 10 μM) | − (“−” indicates less than 50% inhibition at 10 μM) | − (“−” indicates less than 50% inhibition at 10 μM) | − (“−” indicates less than 50% inhibition at 10 μM) | − (“−” indicates less than 50% inhibition at 10 μM) | − (“−” indicates less than 50% inhibition at 10 μM) | − (“−” indicates less than 50% inhibition at 10 μM) | – | – | – | – | – | – | – | – | – | –
